Reference: patent US20040063662A1, “Selenophene anti-tumor agents” (priority 1996, published 2004)

Tests used:
IGROV1 = test: NCI human tumor cell panel: IGROV1 (Ovarian Cancer); assay type: cell-based
NCI-H226 = test: NCI human tumor cell panel: NCI-H226 (Non-Small Cell Lung Cancer); assay type: cell-based
T-47D = test: NCI human tumor cell panel: T-47D (Breast Cancer); assay type: cell-based; details: T47D
SK-OV-3 = test: NCI human tumor cell panel: SK-OV-3 (Ovarian Cancer); assay type: cell-based
HL-60(TB) = test: NCI human tumor cell panel: HL-60(TB) (Leukemia); assay type: cell-based
LOX IMVI = test: NCI human tumor cell panel: LOX IMVI (Melanoma); assay type: cell-based
OVCAR-5 = test: NCI human tumor cell panel: OVCAR-5 (Ovarian Cancer); assay type: cell-based
KM12 = test: NCI human tumor cell panel: KM12 (Colon Cancer); assay type: cell-based
COLO 205 = test: NCI human tumor cell panel: COLO 205 (Colon Cancer); assay type: cell-based; details: COLO 205, read-out: Log10 GI50 (converted)
K-562 = test: NCI human tumor cell panel: K-562 (Leukemia); assay type: cell-based
CAKI-1 = test: NCI human tumor cell panel: CAKI-1 (Renal Cancer); assay type: cell-based
RXF-393 = test: NCI human tumor cell panel: RXF-393 (Renal Cancer); assay type: cell-based
EKVX = test: NCI human tumor cell panel: EKVX (Non-Small Cell Lung Cancer); assay type: cell-based
SK-MEL-2 = test: NCI human tumor cell panel: SK-MEL-2 (Melanoma); assay type: cell-based
SN12C = test: NCI human tumor cell panel: SN12C (Renal Cancer); assay type: cell-based
786-0 = test: NCI human tumor cell panel: 786-0 (Renal Cancer); assay type: cell-based
RPMI-8226 = test: NCI human tumor cell panel: RPMI-8226 (Leukemia); assay type: cell-based
OVCAR-8 = test: NCI human tumor cell panel: OVCAR-8 (Ovarian Cancer); assay type: cell-based
DU-145 = test: NCI human tumor cell panel: DU-145 (Prostate Cancer); assay type: cell-based
SW-620 = test: NCI human tumor cell panel: SW-620 (Colon Cancer); assay type: cell-based
HCT-15 = test: NCI human tumor cell panel: HCT-15 (Colon Cancer); assay type: cell-based
HCC-2998 = test: NCI human tumor cell panel: HCC-2998 (Colon Cancer); assay type: cell-based
UO-31 = test: NCI human tumor cell panel: UO-31 (Renal Cancer); assay type: cell-based
SNB-75 = test: NCI human tumor cell panel: SNB-75 (CNS Cancer); assay type: cell-based
NCI-H522 = test: NCI human tumor cell panel: NCI-H522 (Non-Small Cell Lung Cancer)
BT-549 = test: NCI human tumor cell panel: BT-549 (Breast Cancer); assay type: cell-based
[1] = tested on: panel of sixty different human tumor cell lines; test: NCI human tumor cell panel: whole panel (mean graph summary)
MDA-MB-231/ATCC = test: NCI human tumor cell panel: MDA-MB-231/ATCC (Breast Cancer); assay type: cell-based; details: Homo sapiens, MDA-MB-231, MDA-MB-231/ATCC
SF-268 = test: NCI human tumor cell panel: SF-268 (CNS Cancer); assay type: cell-based
[2] = read-out: Log10 GI50 (converted)
[3] = read-out: Log10 TGI (converted)

Which GI50 (IGROV1; IGROV-1, IGROV1, read-out: Log10 GI50 (converted)) does the source give for `OCc1ccc(-c2ccc(-c3ccc[se]3)s2)[se]1` [compound 676631] here?
Its GI50 is 0.0813 µM.

What about the IC (TGI) (IGROV1; IGROV-1, IGROV1, read-out: Log10 TGI (converted)) of the same compound?
Its IC (TGI) is 0.603 µM.

And the GI50 (NCI-H226; NCI-H226, read-out: Log10 GI50 (converted))?
The GI50 was 0.0501 µM.

And the IC (TGI) (NCI-H226; NCI-H226, read-out: Log10 TGI (converted))?
The IC (TGI) was 0.182 µM.

And the GI50 (T-47D; [2])?
The GI50 was 0.676 µM.

What about the IC (TGI) (T-47D; [3]) of the same compound?
The IC (TGI) was over 100 µM.

What about the GI50 (SK-OV-3; SK-OV-3, read-out: Log10 GI50 (converted)) of the same compound?
The GI50 was 45.7 µM.

What about the IC (TGI) (SK-OV-3; SK-OV-3, read-out: Log10 TGI (converted)) of the same compound?
The IC (TGI) was over 100 µM.

And the GI50 (HL-60(TB); [2])?
Its GI50 is over 100 µM.

And the IC (TGI) (HL-60(TB); read-out: Log10 TGI)?
Its IC (TGI) is over 100 µM.

What about the GI50 (LOX IMVI; [2]) of the same compound?
Its GI50 is 15.1 µM.

And the IC (TGI) (LOX IMVI; [3])?
The IC (TGI) was 36.3 µM.

What about the GI50 (OVCAR-5; OVCAR-5, read-out: Log10 GI50 (converted)) of the same compound?
The GI50 was 0.0316 µM.

What about the IC (TGI) (OVCAR-5; OVCAR-5, read-out: Log10 TGI (converted)) of the same compound?
The IC (TGI) was 0.209 µM.

What about the GI50 (KM12; KM12, read-out: Log10 GI50 (converted)) of the same compound?
Its GI50 is 26.9 µM.

What about the IC (TGI) (KM12; KM12, read-out: Log10 TGI (converted)) of the same compound?
Its IC (TGI) is over 100 µM.

What about the GI50 (COLO 205) of the same compound?
The GI50 was 0.288 µM.

And the GI50 (K-562; K562, K-562, read-out: Log10 GI50 (converted))?
The GI50 was 0.102 µM.

And the IC (TGI) (K-562; K562, K-562, read-out: Log10 TGI (converted))?
Its IC (TGI) is over 100 µM.

What about the GI50 (CAKI-1; CAKI-1, read-out: Log10 GI50 (converted)) of the same compound?
The GI50 was 0.0309 µM.

And the IC (TGI) (CAKI-1; CAKI-1, read-out: Log10 TGI (converted))?
The IC (TGI) was 0.191 µM.

And the GI50 (RXF-393; RXF-393, read-out: Log10 GI50 (converted))?
Its GI50 is 72.4 µM.

And the IC (TGI) (RXF-393; RXF-393, read-out: Log10 TGI (converted))?
The IC (TGI) was over 100 µM.

And the GI50 (EKVX; [2])?
The GI50 was over 100 µM.

And the IC (TGI) (EKVX; [3])?
The IC (TGI) was over 100 µM.

And the GI50 (SK-MEL-2; SK-MEL-2, read-out: Log10 GI50 (converted))?
Its GI50 is over 100 µM.

And the IC (TGI) (SK-MEL-2; SK-MEL-2, read-out: Log10 TGI (converted))?
The IC (TGI) was over 100 µM.

And the GI50 (SN12C; [2])?
The GI50 was over 100 µM.

And the IC (TGI) (SN12C; [3])?
Its IC (TGI) is over 100 µM.

What about the GI50 (786-0; 786-0, read-out: Log10 GI50 (converted)) of the same compound?
Its GI50 is over 100 µM.

What about the IC (TGI) (786-0; 786-0, read-out: Log10 TGI (converted)) of the same compound?
Its IC (TGI) is over 100 µM.

What about the GI50 (RPMI-8226; RPMI-8226, read-out: Log10 GI50 (converted)) of the same compound?
The GI50 was over 100 µM.

And the IC (TGI) (RPMI-8226; RPMI-8226, read-out: Log10 TGI)?
The IC (TGI) was over 100 µM.

What about the GI50 (OVCAR-8; OVCAR-8, read-out: Log10 GI50 (converted)) of the same compound?
The GI50 was 24.5 µM.

And the IC (TGI) (OVCAR-8; OVCAR-8, read-out: Log10 TGI (converted))?
Its IC (TGI) is over 100 µM.

What about the GI50 (DU-145; DU-145, read-out: Log10 GI50 (converted)) of the same compound?
Its GI50 is 20 µM.

And the IC (TGI) (DU-145; DU-145, read-out: Log10 TGI (converted))?
Its IC (TGI) is 77.6 µM.

And the GI50 (SW-620; SW-620, read-out: Log10 GI50 (converted))?
The GI50 was 0.355 µM.

And the IC (TGI) (SW-620; SW-620, read-out: Log10 TGI (converted))?
The IC (TGI) was over 100 µM.

And the GI50 (HCT-15; HCT-15, read-out: Log10 GI50 (converted))?
The GI50 was 27.5 µM.

And the IC (TGI) (HCT-15; HCT-15, read-out: Log10 TGI (converted))?
The IC (TGI) was over 100 µM.

And the GI50 (HCC-2998; HCC-2998, read-out: Log10 GI50 (converted))?
The GI50 was 42.7 µM.

And the IC (TGI) (HCC-2998; HCC-2998, read-out: Log10 TGI (converted))?
The IC (TGI) was over 100 µM.

And the GI50 (UO-31; UO-31, read-out: Log10 GI50 (converted))?
The GI50 was over 100 µM.

And the IC (TGI) (UO-31; UO-31, read-out: Log10 TGI (converted))?
Its IC (TGI) is over 100 µM.

And the GI50 (SNB-75; SNB-75, read-out: Log10 GI50 (converted))?
Its GI50 is 41.7 µM.

And the IC (TGI) (SNB-75; SNB-75, read-out: Log10 TGI (converted))?
Its IC (TGI) is over 100 µM.

And the GI50 (NCI-H522; NCI-H522, read-out: Log10 GI50 (converted))?
Its GI50 is 5.25 µM.

And the IC (TGI) (NCI-H522; NCI-H522, read-out: Log10 TGI)?
Its IC (TGI) is 21.4 µM.

And the GI50 (BT-549; BT-549, read-out: Log10 GI50 (converted))?
Its GI50 is 17 µM.

What about the IC (TGI) (BT-549; BT-549, read-out: Log10 TGI (converted)) of the same compound?
The IC (TGI) was 38 µM.

What about the GI50 ([1]; Homo sapiens, read-out: Log10 GI50, MG_MID, mean over the panel (converted)) of the same compound?
The GI50 was 6.61 µM.

And the “Log10 LC50, MG_MID” value ([1]; mean over the panel)?
The value was −4.15.

What about the “Log10 TGI, MG_MID” value ([1]; mean over the panel) of the same compound?
Its value is −4.47.

What about the “Log10 TGI, Delta” value ([1]; whole panel) of the same compound?
The value was 2.61.

And the “Log10 TGI, Range” value ([1]; whole panel)?
The value was 3.08.

What about the GI50 (MDA-MB-231/ATCC; [2]) of the same compound?
The GI50 was 19.1 µM.

What about the IC (TGI) (MDA-MB-231/ATCC; [3]) of the same compound?
Its IC (TGI) is 87.1 µM.

And the GI50 (SF-268; SF-268, read-out: Log10 GI50 (converted))?
The GI50 was 23.4 µM.

And the IC (TGI) (SF-268; SF-268, read-out: Log10 TGI (converted))?
The IC (TGI) was 64.6 µM.
